How the values were obtained:
Type in all cases: cell-based
human TLR9 = biological target: T1, human TLR9 (Homo sapiens, UniProt Q9NR96); assay: TLR9 inhibition reporter assay (HEK-Blue cells, SEAP reporter); details: HEK-Blue cells overexpressing human TLR9; stimulated with ODN2006 5 nM; SEAP after 22 hour incubation
T1 construct: host or cells: HEK-Blue cells (HEK293-derived reporter line)
T1 sequence (Q9NR96 26-1032): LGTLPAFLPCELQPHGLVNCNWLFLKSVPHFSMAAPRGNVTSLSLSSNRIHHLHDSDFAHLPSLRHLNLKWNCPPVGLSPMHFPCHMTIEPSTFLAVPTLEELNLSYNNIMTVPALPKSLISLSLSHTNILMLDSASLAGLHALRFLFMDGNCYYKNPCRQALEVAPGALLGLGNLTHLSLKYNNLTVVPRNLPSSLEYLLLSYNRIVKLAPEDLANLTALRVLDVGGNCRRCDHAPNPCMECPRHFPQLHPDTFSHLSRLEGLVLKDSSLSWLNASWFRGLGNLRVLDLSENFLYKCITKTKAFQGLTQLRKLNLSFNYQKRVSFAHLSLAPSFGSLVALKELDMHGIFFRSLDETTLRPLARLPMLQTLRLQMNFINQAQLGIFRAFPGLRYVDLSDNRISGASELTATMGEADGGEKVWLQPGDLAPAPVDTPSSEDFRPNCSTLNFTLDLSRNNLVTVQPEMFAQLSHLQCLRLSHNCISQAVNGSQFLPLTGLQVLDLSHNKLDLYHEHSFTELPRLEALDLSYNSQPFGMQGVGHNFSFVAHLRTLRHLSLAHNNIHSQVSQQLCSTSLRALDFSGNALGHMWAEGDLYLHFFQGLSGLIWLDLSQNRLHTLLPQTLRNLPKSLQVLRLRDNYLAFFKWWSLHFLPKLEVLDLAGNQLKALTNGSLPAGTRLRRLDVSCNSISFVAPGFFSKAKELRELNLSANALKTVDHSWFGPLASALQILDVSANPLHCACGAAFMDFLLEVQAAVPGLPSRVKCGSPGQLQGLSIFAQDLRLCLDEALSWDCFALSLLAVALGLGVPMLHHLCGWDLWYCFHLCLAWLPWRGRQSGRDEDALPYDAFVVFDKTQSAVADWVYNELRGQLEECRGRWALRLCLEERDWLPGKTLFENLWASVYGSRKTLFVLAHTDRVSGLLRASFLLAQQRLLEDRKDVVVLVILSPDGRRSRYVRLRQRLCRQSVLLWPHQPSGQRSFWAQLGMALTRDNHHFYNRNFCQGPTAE
Experimental: (§1) TLR7/8/9 Inhibition Reporter Assays
(§2) HEK-Blue™-cells (Invivogen) overexpressing human TLR7, TLR8 or TLR9 receptors were used for screening inhibitors of these receptors using an inducible SEAP (secreted embryonic alkaline phosphatase) reporter gene under the control of the IFN-β minimal promoter fused to five NF-κB and AP-1-binding sites. Briefly, cells are seeded into Greiner 384 well plates (15000 cells per well for TLR7, 20,000 for TLR8 and 25,000 for TLR9) and then treated with test compounds in DMSO to yield a final dose response concentration range of 0.05 nM-50 μM. After a 30 minute compound pre-treatment at room temperature, the cells are then stimulated with a TLR7 ligand (gardiquimod at a final concentration of 7.5 μM), TLR8 ligand (R848 at a final concentration of 15.9 μM) or TLR9 ligand (ODN2006 at a final concentration of 5 nM) to activate NF-κB and AP-1 which induce the production of SEAP. After a 22 hour incubation at 37° C., 5% CO2, SEAP levels are determined with the addition of HEK-Blue™ Detection reagent (Invivogen), a cell culture medium that allows for detection of SEAP, according to manufacturer's specifications. The percent inhibition is determined as the % reduction in the HEK-Blue signal present in wells treated with agonist plus DMSO alone compared to wells treated with a known inhibitor.

human TLR8 = biological target: T2, human TLR8 (Homo sapiens, UniProt Q9NR97); assay: TLR8 inhibition reporter assay (HEK-Blue cells, SEAP reporter); details: HEK-Blue cells overexpressing human TLR8; stimulated with R848 15.9 μM; SEAP after 22 hour incubation
T2 construct: host or cells: HEK-Blue cells (HEK293-derived reporter line)
T2 sequence (Q9NR97 27-1041): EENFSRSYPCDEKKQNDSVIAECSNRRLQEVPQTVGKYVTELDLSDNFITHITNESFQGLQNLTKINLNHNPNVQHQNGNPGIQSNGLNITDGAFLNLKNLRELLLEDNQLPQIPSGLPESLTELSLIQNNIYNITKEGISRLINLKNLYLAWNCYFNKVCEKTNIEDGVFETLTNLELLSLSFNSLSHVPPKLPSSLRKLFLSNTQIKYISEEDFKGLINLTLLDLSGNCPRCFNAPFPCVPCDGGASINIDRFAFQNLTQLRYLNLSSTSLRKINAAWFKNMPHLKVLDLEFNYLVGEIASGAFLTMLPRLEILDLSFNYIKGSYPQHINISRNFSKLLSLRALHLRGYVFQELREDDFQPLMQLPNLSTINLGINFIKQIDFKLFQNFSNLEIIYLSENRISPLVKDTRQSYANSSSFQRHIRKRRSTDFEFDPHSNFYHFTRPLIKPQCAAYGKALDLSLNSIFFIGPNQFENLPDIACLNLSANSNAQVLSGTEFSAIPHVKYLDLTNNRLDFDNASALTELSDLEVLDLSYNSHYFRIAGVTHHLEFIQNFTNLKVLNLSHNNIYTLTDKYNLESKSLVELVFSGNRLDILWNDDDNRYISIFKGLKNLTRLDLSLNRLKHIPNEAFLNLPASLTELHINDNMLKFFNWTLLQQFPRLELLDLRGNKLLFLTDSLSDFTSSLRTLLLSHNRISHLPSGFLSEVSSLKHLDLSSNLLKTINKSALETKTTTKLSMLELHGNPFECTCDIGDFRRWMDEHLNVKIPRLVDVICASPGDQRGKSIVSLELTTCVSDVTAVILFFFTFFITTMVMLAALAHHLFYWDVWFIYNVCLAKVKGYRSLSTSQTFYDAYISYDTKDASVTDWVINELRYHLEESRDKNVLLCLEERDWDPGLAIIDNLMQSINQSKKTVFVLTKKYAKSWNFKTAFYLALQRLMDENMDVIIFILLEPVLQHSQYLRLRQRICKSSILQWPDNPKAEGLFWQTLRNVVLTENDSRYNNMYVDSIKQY
Experimental: as §1, §2

human TLR7 = biological target: T3, human TLR7 (Homo sapiens, UniProt Q9NYK1); assay: TLR7 inhibition reporter assay (HEK-Blue cells, SEAP reporter); details: HEK-Blue cells overexpressing human TLR7; stimulated with gardiquimod 7.5 μM; SEAP after 22 hour incubation
T3 construct: host or cells: HEK-Blue cells (HEK293-derived reporter line)
T3 sequence (Q9NYK1 27-1049): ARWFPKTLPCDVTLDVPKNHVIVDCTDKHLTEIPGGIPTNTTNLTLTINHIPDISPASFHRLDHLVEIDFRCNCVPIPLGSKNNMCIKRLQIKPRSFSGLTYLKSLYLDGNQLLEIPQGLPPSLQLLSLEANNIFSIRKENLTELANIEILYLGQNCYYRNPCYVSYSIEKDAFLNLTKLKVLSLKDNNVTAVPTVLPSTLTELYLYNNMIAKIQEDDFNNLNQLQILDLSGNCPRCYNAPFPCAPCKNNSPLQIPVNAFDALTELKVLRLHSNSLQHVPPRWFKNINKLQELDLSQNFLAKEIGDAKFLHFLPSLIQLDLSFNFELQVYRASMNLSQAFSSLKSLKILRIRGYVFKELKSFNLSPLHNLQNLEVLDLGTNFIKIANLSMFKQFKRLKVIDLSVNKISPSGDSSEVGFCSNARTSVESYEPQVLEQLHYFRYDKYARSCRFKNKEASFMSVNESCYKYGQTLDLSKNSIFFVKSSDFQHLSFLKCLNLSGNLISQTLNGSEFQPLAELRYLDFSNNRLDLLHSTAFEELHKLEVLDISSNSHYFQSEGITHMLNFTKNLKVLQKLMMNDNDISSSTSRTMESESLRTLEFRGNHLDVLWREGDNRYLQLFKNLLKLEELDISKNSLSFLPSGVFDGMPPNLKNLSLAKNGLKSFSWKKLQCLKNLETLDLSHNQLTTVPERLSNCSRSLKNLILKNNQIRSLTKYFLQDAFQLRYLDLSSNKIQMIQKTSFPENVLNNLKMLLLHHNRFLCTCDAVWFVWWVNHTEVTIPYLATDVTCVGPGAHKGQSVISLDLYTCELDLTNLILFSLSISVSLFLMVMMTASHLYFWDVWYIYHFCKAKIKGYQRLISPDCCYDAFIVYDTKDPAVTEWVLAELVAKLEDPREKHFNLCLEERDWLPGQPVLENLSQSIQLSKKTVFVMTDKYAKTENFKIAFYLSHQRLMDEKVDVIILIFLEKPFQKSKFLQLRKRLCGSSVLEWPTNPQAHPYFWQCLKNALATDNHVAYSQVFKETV
Experimental: as §1, §2

Row | Compound | IC50 (human TLR9) [µM] | IC50 (human TLR8) [µM] | IC50 (human TLR7) [µM]
1 | COc1cc(-c2cc3ncc(-c4ccc(N5CCN(C(C)C)CC5)cc4)cc3n2C)ccc1C#N [Example 38, 4-[6-[4-(4-isopropylpiperazin-1-yl)phenyl]-1-methyl-pyrrolo[3,2-b]pyridin-2-yl]-2-methoxy-benzonitrile] | 0.505 | > 25 | > 25
2 | COc1ccc(-c2cc3ncc(-c4ccc(N5CCN(C(C)C)CC5)cc4)cc3n2C)cc1C#N [Example 39] | 0.101 | > 25 | > 25
3 | CC(C)N1CCN(c2ccc(-c3cnc4cc(-c5cccc(S(=O)(=O)N(C)C)c5)n(C)c4c3)cc2)CC1 [Example 40] | 0.076 | 2.1 | 8.1
4 | Cn1c(-c2ccc(S(C)(=O)=O)cc2F)cc2ncc(-c3ccc(N4CCN5CCCC5C4)cc3)cc21 (stereo not drawn) [Example 42] | 0.436 | 2.8 | > 50
5 | CC(C)N1C2CCC1CN(c1ccc(-c3cnc4cc(-c5ccc(S(C)(=O)=O)cc5F)n(C)c4c3)cc1)C2 [Example 43] | 0.292 | 7.8 | > 50

The remaining compounds from weak to strong by IC50 (human TLR9), led by results:

Row | IC50 (human TLR9) [µM] | IC50 (human TLR8) [µM] | IC50 (human TLR7) [µM] | Compound
6 | 0.41 | > 50 | 1.1 | CC(C)CN1[C@@H]2CC[C@H]1C[C@@H](N1CCC(c3cnc4cc(-c5ccc(S(=O)(=O)C6CC6)cc5)n(C)c4c3)CC1)C2 [Example 37, 2-(4-cyclopropylsulfonylphenyl)-1-methyl-6-[1-[rac-(1S,5R)-8-isobutyl-8-azabicyclo[3.2.1]octan-3-yl]-4-piperidyl]pyrrolo[3,2-b]pyridine]
7 | 0.383 | 4.2 | 3.8 | CC(C)N1C[C@@H](C)N(c2ccc(-c3cnc4cc(-c5ccc(S(C)(=O)=O)cc5)n(C)c4c3)cc2)[C@@H](C)C1 [Example 33]
8 | 0.244 | > 50 | > 50 | CC(C)N1[C@H](C)CN(c2ccc(-c3cnc4cc(-c5ccc(S(C)(=O)=O)cc5)n(C)c4c3)cc2)C[C@@H]1C [Example 34]
9 | 0.157 | 1.6 | 10 | CC(C)N1CCN(c2ccc(-c3cnc4cc(-c5ccc(S(C)(=O)=O)cc5F)n(C)c4c3)cc2)CC1 [Example 41]
10 | 0.022 | > 50 | 10.5 | CC(C)CN1[C@@H]2CC[C@H]1CC(N1CCC(c3cnc4cc(-c5ccc(S(C)(=O)=O)cc5)n(C)c4c3)CC1)C2 (stereo partly drawn) [Example 36]

From US20230322770A1, “SUBSTITUTED HETEROARYL COMPOUNDS USEFUL AS INHIBITORS OF TLR9” (BRISTOL-MYERS SQUIBB COMPANY, priority 2020, published 2023)
